The numbers were not newly measured in patent US6399104B1, “Pharmaceutical compositions” (AstraZeneca UK Limited, priority 1997, dated 2002), which cites them from elsewhere.

The conditions of this series: as disclosed in U.S. Pat. No. 5,319,097.

Consider `COc1cc(C(=O)NS(=O)(=O)c2ccccc2C)ccc1Cc1cn(C)c2ccc(NC(=O)OC3CCCC3)cc12` [Form A, N-[4-[5-(cyclopentyloxycarbonyl)amino-1-methylindol-3-ylmethyl]-3-methoxybenzoyl]-2-methylbenzene], for which the bioavailability entry is on record as “good bioavailability”.
